The results in this text go back to patent US7084261B2, “Pegylated T1249 polypeptide” (Hoffmann-La Roche Inc., priority 2002, dated 2006).

Values after ≈ are worked out from the molar mass of the structure shown. Like-named read-outs stand apart in the source and are kept apart here.

In data set [1] the test system is HIV-1. The text has this:
The number of stained nuclei can thus be interpreted as equal to the number of infectious virions in the challenge inoculum if there is only one round of infection prior to staining.

Data set [2] is described as follows: Pharmacokinetics of T1249 in rats after a single subcutaneous or intravenous dose. Format: in vivo. The following applies: both sexes, Sprague-Dawley, blood, rat; for half-life: read-out: T1/2terminal (converted). As to the method: Each treatment group, consisted of 9 Sprague-Dawley rats (Charles River Laboratories, Wilmington, Del.) per sex. Each member of the group received a single subcutaneous or intravenous dose of T1249 (batch 2 referenced in Example 9/Table 5). […]
Blood samples were collected from test animals over a twelve hour time period from three rats per sex per group at each time point. The time points were 0.5, 1, 2, 4, 6, 8,10, and 12 hours after dose administration.
The blood samples were analyzed using a T1249 PcAb ECLIA assay. T1249 PcAb ECLIA is a noncompetitive, two site immunoassay that utilizes two different preparations of rabbit PcAb specific for T1249. In this assay, T1249 determinations are preformed by first incubating the diluted test sample in a tube that also contains biotin-labeled antibody (preparation A) and ruthenium-labeled antibody (preparation B). In the next step, streptavidin-coated magnetic beads are added to the tube in order to capture the antibody-peptide-antibody immune complexes (sandwiches) that have formed. The mixture is then pumped through a flow-cell in the analyzer, after which an electrical current is applied to […] adjacent to the flow-cell. Light is generated through cyclical oxidation-reduction reactions between the ruthenium metal ions that are conjugated to the detector antibodies and tripropylamine ions that are present in excess in the assay buffer. This light energy is the measured end-point. A sample containing an appreciable amount of T1249 presents a higher signal compared to a sample containing little or no T1249.

`CC[C@H](C)[C@H](NC(=O)[C@H](CCC(N)=O)NC(=O)[C@H](C)NC(=O)[C@H](CCC(N)=O)NC(=O)[C@H](CCC(=O)O)NC(=O)[C@H](CC(C)C)NC(=O)[C@H](CC(C)C)NC(=O)[C@H](C)NC(=O)[C@@H](NC(=O)[C@@H](NC(=O)[C@H](CCCCN)NC(=O)[C@H](CCC(N)=O)NC(=O)[C@H](CCC(=O)O)NC(=O)[C@H](Cc1c[nH]c2ccccc12)NC(=O)[C@H](CCC(=O)O)NC(=O)[C@H](CCC(N)=O)NC(=O)[C@@H](N)Cc1c[nH]c2ccccc12)[C@@H](C)CC)[C@@H](C)O)C(=O)N[C@@H](CCC(N)=O)C(=O)N[C@@H](CCC(N)=O)C(=O)N[C@@H](CCC(=O)O)C(=O)N[C@@H](CCCCN)C(=O)N[C@@H](CC(N)=O)C(=O)N[C@@H](CCC(=O)O)C(=O)N[C@@H](Cc1ccc(O)cc1)C(=O)N[C@@H](CCC(=O)O)C(=O)N[C@@H](CC(C)C)C(=O)N[C@@H](CCC(N)=O)C(=O)N[C@@H](CCCCN)C(=O)N[C@@H](CC(C)C)C(=O)N[C@@H](CC(=O)O)C(=O)N[C@@H](CCCCN)C(=O)N[C@@H](Cc1c[nH]c2ccccc12)C(=O)N[C@@H](C)C(=O)N[C@@H](CO)C(=O)N[C@@H](CC(C)C)C(=O)N[C@@H](Cc1c[nH]c2ccccc12)C(=O)N[C@@H](CCC(=O)O)C(=O)N[C@@H](Cc1c[nH]c2ccccc12)C(=O)N[C@@H](Cc1ccccc1)C(N)=O` [Example T1249] returned an IC50 in data set [1] (50% reduction in infectious virus titer) of 0.003 µg/mL (≈ 0.601 nM). For the same compound, the IC90 in data set [1] (90% reduction in infectious titer) turned out to be 0.023 µg/mL (≈ 4.6 nM). In data set [2] (1.2 mg/kg (SC)), the AUC(0-inf) turned out to be 27600 ng·h/mL, the AUC(0-t) came to 27000 ng·h/mL, the Cmax was 6370 ng/mL and the Tmax came out at 1.09 h. Moreover, the half-life in data set [2] (1.2 mg/kg (SC)) is 2.02 h. In data set [2] (1.5 mg/kg (IV)), the area under the curve AUC(0-inf) is 47100 ng·h/mL, the AUC(0-t) was 45600 ng·h/mL, the concentration peaked (Cmax) at 15700 ng/mL and the half-life was 2.46 h. Also, in data set [2] (5.0 mg/kg (IV)), the total exposure AUC(0-inf) came to 120000 ng·h/mL, the AUC(0-t) was 118000 ng·h/mL, the Cmax is 46300 ng/mL and the half-life was 1.86 h. In data set [2] (15 mg/kg (SC)), the AUC(0-inf) was 110000 ng·h/mL, the AUC(0-t) is 107000 ng·h/mL, the peak level (Cmax) was 21500 ng/mL and the Tmax turned out to be 1.88 h. Also, the half-life in data set [2] (15 mg/kg (SC)) is 2 h.

The term IC50 denotes the concentration that gives 50% inhibition. High values mean a need for much substance, low ones inhibition by little substance. What is called IC90 is the concentration needed for an effect of 90%. A low value points to an effect from little substance. One may read the AUC(0-inf) as total exposure, with the tail of the curve extrapolated. The low end stands for less exposure, the high end for more exposure. The term AUC(0-t) denotes exposure summed from dosing to a finite time, without extrapolation to infinity. Usually Cmax stands for the highest concentration seen after dosing. By Tmax is commonly meant the time from dosing to the highest level.
